# In US20250386827A1, “PESTICIDES WITH METAL NANOPARTICLE AND CELLULOSIC NANOMATERIAL COMPLEX” (NDSU Research Foundation, priority 2024, published 2025):
# How the values were obtained:
# [1] = Surface tension of droplet (pendant drop, drop-shape analyzer); assay type: physicochemical; conditions: 100 mg/mL in water
# Procedure: Surface Adhesion Properties. The contact angle (θc) of the complexation solution on the wheat leaf surface and the surface tension at the liquid-vapor interface (γLV) were measured using a KRUSS (Model: DSA1005, Serial: 30009734, Germany) drop-shape analyzer. The wheat leaf was taped on the sample stage to prepare a flat and level surface for the measurement. […] KRUSS software tracked the surface of the droplet with respect to the leaf surface baseline and calculated the contact angle (θC). Surface tension γLv of the droplet (largest droplet formation at syringe nozzle just before dripping from the nozzle) was measured using a KRUSS drop shape analyzer (pendant needle was used, diameter 1.8 mm). The solid-liquid adhesion energy per unit area (δWSLV) of the droplet was calculated using the following Young-Dupré equation (1): […]
# wheat leaf surface = test: Contact angle and solid-liquid adhesion energy on wheat leaf surface; assay type: physicochemical; conditions: 100 mg/mL
# Procedure: Surface Adhesion Properties. The contact angle (θc) of the complexation solution on the wheat leaf surface and the surface tension at the liquid-vapor interface (γLV) were measured using a KRUSS (Model: DSA1005, Serial: 30009734, Germany) drop-shape analyzer. The wheat leaf was taped on the sample stage to prepare a flat and level surface for the measurement. […] KRUSS software tracked the surface of the droplet with respect to the leaf surface baseline and calculated the contact angle (θC). Surface tension γLv of the droplet (largest droplet formation at syringe nozzle just before dripping from the nozzle) was measured using a KRUSS drop shape analyzer (pendant needle was used, diameter 1.8 mm). The solid-liquid adhesion energy per unit area (δWSLV) of the droplet was calculated using the following Young-Dupré equation (1): [formula]
smiles,measurement,setting,value
"O.O.O.O.O.O=S(=O)([O-])[O-].[Cu+2] [CuSO4, copper (II) sulfate pentahydrate]",surface tension,[1],57.46 mM/m
same,contact angle,wheat leaf surface,125.2 °
same,surface adhesion energy,wheat leaf surface; Young-Dupré equation,24.17 mM/m
